Data: patent US11180462B2, “Microbiocidal oxadiazole derivatives” (SYNGENTA PARTICIPATIONS AG, priority 2015, dated 2021)

Tests used:
[1] = tested on: Puccinia recondita f. Sp. Tritici; assay: Fungicidal activity against Puccinia recondita f. sp. tritici / wheat / leaf disc curative (brown rust); assay type: in vivo; conditions: foliar, 24 h, 200 ppm in the applied formulation, wheat leaf segments, curative (applied 1 day after inoculation), compared to untreated control leaf disks, read-out: disease control
How it was run: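 Inoculate cv. Kanzler segments on agar; hold dark, 19° C, 75% RH. Spray diluted formulated compound at day 1. Incubate 12 h light/12 h dark, same temperature and humidity; score % control vs untreated 6–8 days later.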

[2] = tested on: Glomerella lagenarium (Colletotrichum lagenarium); assay: Fungicidal activity against Glomerella lagenarium (Colletotrichum lagenarium) liquid culture / cucumber / preventative (anthracnose); assay type: cell-based; conditions: Colletotrichum orbiculare; 20 ppm in the applied formulation; liquid culture (PDB), growth inhibition measured photometrically after 3 to 4 days; compared to untreated control; read-out: disease control
How it was run: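 Percent activity against the untreated check was derived from photometric growth measurements made 2 to 7 days after conidia in potato dextrose broth were combined with compound at 20 ppm. Cultures were kept dark at 24 °C and 96% humidity.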

[3] = tested on: Puccinia recondita f. Sp. Tritici; assay: Fungicidal activity against Puccinia recondita f. sp. tritici / wheat / leaf disc preventative (brown rust); assay type: in vivo; conditions: foliar, 200 ppm in the applied formulation, wheat leaf segments, preventative, compared to untreated control leaf disks, read-out: disease control
How it was run: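 Percent disease control relative to untreated check segments is scored once disease develops, 7 to 9 days after application. Wheat cv. Kanzler segments receive compound spray (200 ppm in formulation) one day before spore inoculation, then sit at 19° C. and 75% rh under 12 h light/12 h dark.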

CN(Cc1ccc(-c2noc(C(F)(F)F)n2)cc1)C(=O)N(C)C1CC1 [Compound 3.72, 1-cyclopropyl-1,3-dimethyl-3-[[4-[5-(trifluoromethyl)-1,2,4-oxadiazol-3-yl]phenyl]methyl]urea]
≥ 80%: pest or weed control at 200 ppm [1] | inhibition of growth at 20 ppm [2] | pest or weed control at 200 ppm [3]

CC=C(C)C(=O)N(Cc1ccc(-c2noc(C(F)(F)F)n2)cc1)C(C)CC (stereo not drawn) [Compound 1.374, 2-methyl-N-sec-butyl-N-[[4-[5-(trifluoromethyl)-1,2,4-oxadiazol-3-yl]phenyl]methyl]but-2-enamide]
≥ 80%: pest or weed control at 200 ppm [1] | inhibition of growth at 20 ppm [2] | pest or weed control at 200 ppm [3]

COCCC(=O)N(Cc1ccc(-c2noc(C(F)(F)F)n2)cc1)Cc1ccco1 [Compound 1.456, N-(2-furylmethyl)-3-methoxy-N-[[4-[5-(trifluoromethyl)-1,2,4-oxadiazol-3-yl]phenyl]methyl]-propanamide]
≥ 80%: pest or weed control at 200 ppm [1] | inhibition of growth at 20 ppm [2] | pest or weed control at 200 ppm [3]

CON(Cc1ccc(-c2noc(C(F)(F)F)n2)cc1)C(=O)OC(C)C [Compound 2.14, isopropyl N-methoxy-N-[[4-[5-(trifluoromethyl)-1,2,4-oxadiazol-3-yl]phenyl]methyl]-carbamate]
≥ 80%: pest or weed control at 200 ppm [1] | inhibition of growth at 20 ppm [2] | pest or weed control at 200 ppm [3]

CC1(C(=O)N(Cc2ccc(-c3noc(C(F)(F)F)n3)cc2)Cc2ccco2)COC1 [Compound 1.468, N-(2-furylmethyl)-3-methyl-N-[[4-[5-(trifluoromethyl)-1,2,4-oxadiazol-3-yl]phenyl]methyl]-oxetane-3-carboxamide]
≥ 80%: pest or weed control at 200 ppm [1] | inhibition of growth at 20 ppm [2] | pest or weed control at 200 ppm [3]

CON(C(=O)C1CCCCO1)C(C)c1ccc(-c2noc(C(F)(F)F)n2)cc1 (stereo not drawn) [Compound 1.249, N-methoxy-N-[1-[4-[5-(trifluoromethyl)-1,2,4-oxadiazol-3-yl]phenyl]ethyl]-tetrahydropyran-2-carboxamide]
≥ 80%: pest or weed control at 200 ppm [1] | inhibition of growth at 20 ppm [2] | pest or weed control at 200 ppm [3]

COC(C)C(=O)N(Cc1ccc(-c2noc(C(F)(F)F)n2)cc1)CC1CCCO1 (stereo not drawn) [Compound 1.446, 2-methoxy-N-(tetrahydrofuran-2-ylmethyl)-N-[[4-[5-(trifluoromethyl)-1,2,4-oxadiazol-3-yl]phenyl]methyl]-propanamide]
≥ 80%: pest or weed control at 200 ppm [1] | inhibition of growth at 20 ppm [2] | pest or weed control at 200 ppm [3]

CCN(Cc1ccc(-c2noc(C(F)(F)F)n2)cc1)C(=O)N1CCCC1 [Compound 3.93, N-ethyl-N-[[4-[5-(trifluoromethyl)-1,2,4-oxadiazol-3-yl]phenyl]methyl]-pyrrolidine-1-carboxamide]
≥ 80%: pest or weed control at 200 ppm [1] | inhibition of growth at 20 ppm [2] | pest or weed control at 200 ppm [3]

N#CC1(C(=O)N(Cc2ccc(-c3noc(C(F)(F)F)n3)cc2)CC2CCCO2)CC1 (stereo not drawn) [Compound 1.443, 1-cyano-N-(tetrahydrofuran-2-ylmethyl)-N-[[4-[5-(trifluoromethyl)-1,2,4-oxadiazol-3-yl]phenyl]methyl]-cyclopropane-carboxamide]
≥ 80%: pest or weed control at 200 ppm [1] | inhibition of growth at 20 ppm [2] | pest or weed control at 200 ppm [3]

CCN(Cc1ccc(-c2noc(C(F)(F)F)n2)cc1)C(=O)N(C)C1CC1 [Compound 3.90, 1-cyclopropyl-3-ethyl-1-methyl-3-[[4-[5-(trifluoromethyl)-1,2,4-oxadiazol-3-yl]phenyl]methyl]urea]
≥ 80%: pest or weed control at 200 ppm [1] | inhibition of growth at 20 ppm [2] | pest or weed control at 200 ppm [3]
